# Laboratory results reported in patent US20260015574A1, “METHODS FOR SHORTENING LAG PHASE DURATION IN MICROORGANISMS” (YEDA RESEARCH AND DEVELOPMENT CO. LTD., priority 2022, published 2026).
# Key:
# [1] = system: Various marine bacteria; assay: Lag phase shortening in various marine bacteria; format: cell-based; conditions: minute amounts of compound
# Procedure: The bacterial strain Phaeobacter inhibens DSM 17395 was purchased from the German collection of microorganisms and cell cultures (DSMZ, Braunschweig, Germany) and stored at −80° C. with 20% glycerol. Routine cultivation of P. inhibens was conducted at 30° C. in artificial seawater medium (ASW) based on Goyet and Poisson (1989). The ASW medium contained mineral salts (NaCl, 409.41 mM; Na2SO4, 28.22 mM; KCl, 9.08 mM; KBr, 0.82 mM; NaF, 0.07 mM; Na2CO3, 0.20 mM; NaHCO3, 2 mM; MgCl2, 50.66 mM; SrCl2, 0.09 mM), L1 vitamins (thiamine HCl, 100 μg/L; biotin, 0.5 μg/L; vitamin B12, […]), L1 trace elements (Na2EDTA·2H2O, 4.36 mg/L; FeCl3·6H2O, 3.15 mg/L; MnCl2·4H2O, 178.1 μg/L; ZnSO4·7H2O, 23.0 μg/L; CoCl2·6H2O, 11.9 μg/L; CuSO4·5H2O, 2.5 μg/L; Na2MoO4·2H2O, 19.9 μg/L; H2SeO3, 1.29 μg/L; NiSO4·6H2O, 2.63 μg/L; Na3 VO4, 1.84 μg/L; K2CrO4, 1.94 μg/L), and L1 nutrients (NaNO3, 882 μM; NaH2PO4, 36.22 μM). ASW was adjusted to pH 8 using HCl. […] A 96-well Tecan Infinite M Plex plate reader was used for high-resolution monitoring of bacterial growth dynamics at 30° C. […] The growth of bacteria in co-culture with algae was monitored by counting colony forming units (CFU) on ½ YTSS agar plates. The growth of algae was monitored with a CellStream flow cytometer (Merck, Darmstadt, Germany). […]
# [2] = system: P. inhibens dmdA KO mutant; assay: Lag phase shortening in dmdA knockout mutant; format: cell-based, Phaeobacter inhibens
# Procedure: (§1) For creation of P. inhibens knockout cells, ˜1,000 bp regions upstream and downstream of the gene of interest were amplified by PCR (Phusion High-Fidelity DNA polymerase, Thermo Scientific), using primers that added homologous regions to gentamycin or kanamycin resistance markers. The fragments were assembled and cloned into the TOPOII vector (Invitrogen) using restriction-free cloning (Peleg Y. & Unger T., 2014), generating a knockout (KO) plasmid. P. inhibens electrocompetent cells (300 μl) were transformed with 10 μg of the constructed KO plasmid by a pulse of 1.8 kV (Bio Rad). Cells were selected on ½YTSS agar plates containing 30 μg/ml gentamycin or 150 μg/ml kanamycin. Successful knockouts in single cell clones were verified by PCR and sanger sequencing.
# The inventors further sought to better understand why methyl groups shorten the bacterial lag phase. The inventors list at least three cellular scenarios which could explain the effect that methylated compounds have on the lag phase: (1) methyl groups might be a limiting resource; (2) methyl groups might act as a signal that triggers a cellular cascade, which culminates in lag phase shortening; and (3) methylated compounds could accumulate intracellularly and function as osmoprotectants and antioxidants. […]
# [3] = system: P. inhibens ΔmetE mutant; assay: Lag phase shortening in ΔmetE mutant; format: cell-based, Phaeobacter inhibens; conditions: 2 μM DMSP, minimal media
# Procedure: as §1
# P. inhibens harbors another methionine synthase encoded by metE (FIGS. 1C and 4; gene 65). To test the possible contribution of this enzyme to lag phase shortening the inventors knocked-out the gene and examined the performance of the mutant strain. […] To further rule out the involvement of MetE in lag phase shortening, the inventors perturbed the function of MetE using an inhibitor of its methyl donor. To produce methionine, MetE utilizes 5-methyl-tetrahydrofolate (THF) as a methyl donor (Pejchal and Ludwig, 2005). THF is central in the process of bacterial nucleotide production (Quinlivan et al., 2000).
# [4] = system: bacteria that are plant-associated; assay: Lag phase shortening in plant-associated bacteria; format: cell-based
# Description: To explore whether lag phase shortening is a general mechanism among bacteria, the inventors tested the effect of methylated compounds in bacteria with different lifestyles. […] Since methylated compounds are a hallmark of photosynthesizing organisms, the inventors next tested a variety of bacteria that are plant-associated. […] Finally, to establish the prevalence of lag phase shortening among bacteria, the inventors tested the model bacterium E. coli. This bacterium is not commonly found associated with photosynthesizing organisms, and thus, is unlikely to respond to algal metabolites. […] The synchrony between specific compounds and different groups of bacteria may reflect the natural context […].
smiles,measurement,setting,value
"C[S+](C)CCC(=O)[O-] [DMSP, dimethylsulfoniopropionate]",lag phase shortening,[1],marked lag phase shortening
same,lag phase shortening,[2],does not shorten the lag phase
same,lag phase shortening,[3],exhibited lag phase shortening similar to wild-type bacteria
same,lag phase shortening,[4],to slightly less extent
